Data from ChEMBL document CHEMBL4627407, “Identification of a Potent Oridonin Analogue for Treatment of Triple-Negative Breast Cancer” (J Med Chem, 2020).
Calls of active or inactive are those of the source. The calls are words filed in the database; no cut-off is given here.

Key:
HCC1806 [1] = assay: Potency index, ratio of oridonin IC50 to compound IC50 for antiproliferative activity against human HCC1806 cells after 72 hrs by MTT assay; type: functional
MDA-MB-468 [2] = assay: Antiproliferative activity against human MDA-MB-468 cells after 72 hrs by MTT assay; type: functional, cell-based; conditions: MDA-MB-468, 72 h
MDA-MB-231 [3] = assay: Potency index, ratio of oridonin IC50 to compound IC50 for antiproliferative activity against human MDA-MB-231 cells after 72 hrs by MTT assay; type: functional
HCC1806 [4] = assay: Antiproliferative activity against human HCC1806 cells after 72 hrs by MTT assay; type: functional, cell-based; conditions: HCC1806, 72 h
MDA-MB-231 [5] = assay: Antiproliferative activity against human MDA-MB-231 cells after 72 hrs by MTT assay; type: functional, cell-based; conditions: MDA-MB-231, 72 h
DU-4475 [6] = assay: Antiproliferative activity against human DU4475 cells after 72 hrs by MTT assay; type: functional, cell-based; conditions: DU-4475, 72 h
DU-4475 [7] = assay: Potency index, ratio of oridonin IC50 to compound IC50 for antiproliferative activity against human DU4475 cells after 72 hrs by MTT assay; type: functional
MDA-MB-468 [8] = assay: Potency index, ratio of oridonin IC50 to compound IC50 for antiproliferative activity against human MDA-MB-468 cells after 72 hrs by MTT assay; type: functional
HCC1806 [9] = assay: Antitumor activity against human HCC1806 cells in ICR mouse assessed as reduction in tumor weight at 6 mg/kg, iv administered once per 2 days for 23 consecutive days and measured every 2 days relative to control; type: functional; set-up: scale not given: the % may be the effect or the level left
HCC1806 [10] = assay: Antitumor activity against human HCC1806 cells in ICR mouse assessed as tumor shrinkage at 6 mg/kg, iv administered once per 2 days for 23 consecutive days by Ki67 staining-based immunohistochemical analysis; type: functional, organism-based
HCC1806 [11] = assay: Antitumor activity against human HCC1806 cells in ICR mouse assessed as increase in apoptosis in tumor at 6 mg/kg, iv administered once per 2 days for 23 consecutive days by Ki67 staining-based immunohistochemical analysis; type: functional, organism-based
HCC1806 [12] = assay: Antitumor activity against human HCC1806 cells in ICR mouse assessed as increase in apoptosis in tumor at 6 mg/kg, iv administered once per 2 days for 23 consecutive days by TUNEL based immunohistochemical analysis; type: functional, organism-based
HCC1806 [13] = assay: Antitumor activity against human HCC1806 cells in ICR mouse assessed as tumor shrinkage at 6 mg/kg, iv administered once per 2 days for 23 consecutive days by hematoxylin and eosin staining based histopathological assay; type: functional, organism-based
[14] = Toxicity in ICR mouse assessed as reduction in body weight at 6 mg/kg, iv administered once per 2 days for 23 consecutive days and measured every 2 days; type: organism-based; conditions: in vivo, 48 h
HCC1806 [15] = assay: Antitumor activity against human HCC1806 cells in ICR mouse assessed as increase in apoptosis in tumor at 6 mg/kg, iv administered once per 2 days for 23 consecutive days by hematoxylin and eosin staining based histopathological assay; type: functional, organism-based
HCC1806 [16] = assay: Antitumor activity against human HCC1806 cells in ICR mouse assessed as tumor shrinkage at 6 mg/kg, iv administered once per 2 days for 23 consecutive days by TUNEL based immunohistochemical analysis; type: functional, organism-based
HCC1806 [17] = assay: Antitumor activity against human HCC1806 cells harboring luciferase gene xenografted in ICR mouse assessed as shrunken tumor tissue at 6 mg/kg, iv administered once per 2 days for 21 consecutive days and measured once every week; type: functional, organism-based
SK-BR-3 = assay: Antiproliferative activity against human SK-BR-3 cells after 72 hrs by MTT assay; type: functional, cell-based; conditions: SK-BR-3, 72 h
NCI/ADR-RES = assay: Antiproliferative activity against human MCF7/ADR cells after 72 hrs by MTT assay; type: functional, cell-based
HCC1937 = assay: Antiproliferative activity against human HCC1937 cells after 72 hrs by MTT assay; type: functional, cell-based; conditions: HCC1937, 72 h
MDA-MB-453 = assay: Antiproliferative activity against human MDA-MB-453 cells after 72 hrs by MTT assay; type: functional, cell-based; conditions: MDA-MB-453, 72 h
T47D = assay: Antiproliferative activity against human T47D cells after 72 hrs by MTT assay; type: functional, cell-based

IC50 (MDA-MB-468 [2]) [nM]	IC50 (HCC1806 [4]) [nM]	IC50 (MDA-MB-231 [5]) [nM]	SMILES	Ratio IC50 (HCC1806 [1])	Ratio IC50 (MDA-MB-231 [3])	IC50 (DU-4475 [6]) [nM]	Ratio IC50 (DU-4475 [7])	Ratio IC50 (MDA-MB-468 [8])	further results
			CC(=O)O[C@H]1C(=O)[C@@]2(C)[C@H]([C@H](OC(=O)c3ccccc3)[C@]3(O)C[C@H](OC(=O)[C@H](O)[C@@H](NC(=O)c4ccccc4)c4ccccc4)C(C)=C1C3(C)C)[C@]1(OC(C)=O)CO[C@@H]1C[C@@H]2O [PACLITAXEL]						Activity (HCC1806 [9]): 66%; Activity (HCC1806 [10]): Active; Activity (HCC1806 [11]): Active; Activity (HCC1806 [12]): Active; Activity (HCC1806 [13]): Active; Activity [14]: Toxic; Activity (HCC1806 [15]): Active; Activity (HCC1806 [16]): Active; Activity (HCC1806 [17]): Active
2240	2390	2960	C=C1C(=O)[C@]23[C@H](O)[C@H]1CC[C@H]2[C@]12CCCC(C)(C)[C@H]1[C@H](O)[C@@]3(O)OC2	6 - 12	6 - 12	2360	6 - 12	6 - 12	
17300	21700	17900	C=C1C(=O)[C@]23[C@H](O)[C@H]1CC[C@H]2[C@@]12CO[C@]3(O)[C@@H](O)[C@@H]1C(C)(C)CC[C@@H]2O [ORIDONIN]			17000			IC50 (SK-BR-3): 8490 nM; IC50 (NCI/ADR-RES): 26200 nM; IC50 (HCC1937): 8270 nM; IC50 (MDA-MB-453): 6670 nM; IC50 (T47D): 7560 nM
1880	1930	1390	C=C1C(=O)[C@@]23C(=O)[C@@H]4OC[C@]5(C=CCC(C)(C)[C@@H]45)[C@@H]2CC[C@@H]1[C@H]3OC(=O)c1ccc(Cl)cc1			1950			
1340	1220	1280	C=C1C(=O)[C@@]23C(=O)[C@@H]4OC[C@]5(C=CCC(C)(C)[C@@H]45)[C@@H]2CC[C@@H]1[C@H]3OC(=O)/C=C/c1ccoc1			1380			

SMILES	IC50 (MDA-MB-468 [2]) [nM]	IC50 (HCC1806 [4]) [nM]	IC50 (MDA-MB-231 [5]) [nM]	Ratio IC50 (HCC1806 [1])	Ratio IC50 (MDA-MB-231 [3])	IC50 (DU-4475 [6]) [nM]	Ratio IC50 (DU-4475 [7])	Ratio IC50 (MDA-MB-468 [8])	further results
C=C1C(=O)[C@]23[C@H](O)[C@H]1CC[C@H]2[C@]12C=CCC(C)(C)[C@H]1[C@H](O)[C@@]3(O)OC2	1440	2350	2330	6 - 12	6 - 12	1610	6 - 12	6 - 12	
